These results are taken from paper PMC10295794, “Pharmacokinetic Analysis of Zonarol, a Marine Algal Hydroquinone, in Mice Using HPLC with Fluorescence Detection” (Antibiotics, 2023).

Read-outs that look alike come from different tables or passages of the source.

For series [1] the following is noted: cited from earlier work.
For series [2] the following is noted: cited from earlier work. This is another data set of the same source.
Series [3] can be described thus: Plasma concentration of zonarol after oral or intravenous administration in mice (HPLC-FI, non-compartmental analysis). It is filed as in vivo. Particulars: for time within which plasma concentration remained over the LOQ: LOQ 11.1 ng/mL. Here is the method:
(§1) HPLC analysis was carried out on a Shimadzu-20A series instrument (Shimadzu, Japan) connected to a fluorescence detector (RF-10A xl, Shimadzu, Japan). The signals from the fluorescence system were transmitted to LC Solution software for the purposes of analyzing and calculating the peak areas. Chromatographic separation was carried out on an RPAQUEOUS-AR-5 (4.6 × 250 mm) column. The HPLC was operated with a gradient mobile phase system consisting of water containing 0.1% formic acid (phase A) and methanol (phase B) at a flow rate of 1 mL/min. The pump was programmed as follows: phase B was maintained at 40% for the first 5 min, increased from 40% to 80% within the next 25 min, maintained at 80% for the next 10 min, increased to 100% for 10 min, and then decreased back to 40% for 10 min (total gradient time: 60 min). A 50 μL sample was injected into the system with the auto-sampler and conditioned at 4 °C, and the column temperature was maintained at 30 °C.
Male ddY mice (8 weeks old, 40 ± 2 g) were purchased from SLC Inc. (Shizuoka, Japan) and were acclimated to laboratory conditions for 1 week before experiment. The mice were housed in an air-conditioned room at 23 ± 2 °C with 12 h/12 h light–dark illumination cycles at a constant humidity (55 ± 10%) with free access to food (MR stock, Nosan, Japan) and tap water. Exsanguination and autopsy were performed under anesthesia with an overdose of isoflurane (Mylan EPD Ltd., Canonsburg, PA, USA). All procedures were reviewed and approved (R3-9 and R4-2) in terms of animal welfare by the Animal Ethics Committee of Tokyo University of Marine Science and Technology.
The mice were fasted for 12 h before the oral administration of zonarol. Blood samples were collected from the mouse tails at 15, 30, 45, 60, 90, 120, 240, and 480 min after the oral administration of 100 mg/kg of zonarol (n = 5).
The mice were not fasted before the intravenous administration of zonarol but were fasted after the test started. Blood samples were collected from the mouse tails, via the caudal veins, at 5, 15, 30, 45, 60, 90, 120, and 240 min after the intravenous administration of 10 mg/kg of zonarol (n = 6).
Blood samples were immediately centrifuged at 9000 rpm for 5 min. After centrifugation, a 20 μL aliquot of plasma was mixed with 80 μL of MeCN for deproteinization. Then, the mixture was centrifuged at 9000 rpm for 5 min, and the supernatant was used for HPLC analysis.
Data were expressed as the mean ± standard deviation (SD) for the in vitro and the animal experiments. The number of the data is described for each experiment. The pharmacokinetic parameters were calculated with Phoenix Winnonlin software (version 8.1) while using a non-compartmental model. The abnormal data were eliminated after being analyzed via a Box-type drawing with SPSS software (SPSS Inc., Chicago, IL, USA).

Series [4] is described as follows: Tissue distribution of zonarol after intravenous administration in mice. Type of series: in vivo. Particulars: for concentration at 30 min / concentration at 15 min: mouse, iv, 10 mg/kg; for concentration at 30 min: brain; for concentration at 15 min: 15 min after administration. The method, then: as §1
Blank tissue homogenates were prepared by collecting the liver, kidney, and brain from normal mice after anesthetization. Blank tissue homogenates were used to determine the specificity of zonarol. In the experimental mice, the livers, kidneys, and brains were collected at 15, 30, 60, 120 min after the intravenous administration, via the caudal veins, of 10 mg/kg of zonarol (n = 7). The tissue with added distilled water (mass/volume = 1:4) was homogenized.
Next, a 50 μL of tissue homogenate was mixed with 200 μL of MeCN for deproteinization. Then, the mixture was centrifuged at 9000 rpm for 5 min, and the supernatant was used for HPLC analysis.

A short description of series [5]: Stability of zonarol with mice plasma during HPLC analysis. It is filed as in vitro ADME. The method, then: as §1
The stability of low, medium, and high concentrations of 20, 80, and 320 ng/mL of zonarol mixed with the plasma of mice was performed under different conditions, including storage at room temperature for 4 h, storage at 37 °C for 4 h, and storage at 4 °C for 12 h and subjection to three freeze–thaw cycles. Next, 20 μL aliquots of low, medium, and high concentration zonarol solutions ([…]) were added to polypropylene tubes with 80 μL of blank plasma. Then, 900 μL of MeCN was added to the mixture, after being incubated under the different conditions described above, for deproteinization. The final nominal concentrations of zonarol were 20, 80, and 320 ng/mL. After deproteinization, the mixtures were centrifuged at […] for 5 min, and the supernatants were used for HPLC analysis. The accuracy of the assay was determined by comparing the nominal concentrations with the corresponding calculated concentrations via linear regression. Every concentration of zonarol was measured three times.

The subject of series [6] is carrageenan-induced paw edema. The series can be described thus: Carrageenan-induced paw edema in mice after oral bolus zonarol. It is filed as in vivo. Particulars: estimated from current p.o. 100 mg/kg plasma data and earlier 62.5 mg/kg edema result (ref 16).
Series [7] deals with carrageenan-induced paw edema. On the set-up: method as in PMID 25409433. The settings on record: mice, oral bolus 62.5 mg/kg at −0.5 h; edema at 2 and 4 h after carrageenan; cited from earlier work.
The subject of series [8] is DSS-induced ulcerative colitis. Set-up: method as in PMID 25409433. Particulars: mice, oral 10 mg/kg/day for 2 weeks; cited from earlier work.
Another series concerns diet-induced NAFLD. On the set-up: method as in PMID 34684455. The settings on record: mice, oral 10 mg/kg/day for 2 weeks; cited from earlier work.
[9] abbreviates: male, ddY, mouse, plasma, po, p.o. 100 mg/kg, n = 5, mean ± SD.
[10] abbreviates: storage at 4 °C for 12 h, prepared 20 ng/mL.
Where [11] appears, read: storage at 4 °C for 12 h, prepared 80 ng/mL.
Where [12] appears, read: storage at 4 °C for 12 h, prepared 320 ng/mL.
[13] abbreviates: storage at 37 °C for 4 h, prepared 20 ng/mL.
Where [14] appears, read: storage at 37 °C for 4 h, prepared 80 ng/mL.
The mark [15] stands for this setting: storage at 37 °C for 4 h, prepared 320 ng/mL.
Where [16] appears, read: storage at RT for 4 h, prepared 20 ng/mL.
Setting [17] is: storage at RT for 4 h, prepared 80 ng/mL.
[18] abbreviates: storage at RT for 4 h, prepared 320 ng/mL.
Where [19] appears, read: three cycles of freeze-thaw, prepared 20 ng/mL.
Where [20] appears, read: three cycles of freeze-thaw, prepared 80 ng/mL.
[21] abbreviates: three cycles of freeze-thaw, prepared 320 ng/mL.

For `O=c1c(O)c(-c2ccc(O)c(O)c2)oc2cc(O)cc(O)c12` [quercetin], the absolute bioavailability in series [1] (variability depended on gastric contents during ingestion) is 16%. In series [2] (0.1%-quercetin-containing diet for 11 weeks), the “accumulation in the brain” value is “did not induce the accumulation”.

As for fucoxanthin, the bioavailability (commonly the share of a dose that reaches the circulation, judged against a reference dose that is usually intravenous) in series [1] is reported as 0.06%. For the same compound, the “passage through the BBB” value in series [2] (due to hydrophobic properties) is given as “pass through the BBB”.

As for `C=C1CC[C@@H]2C(C)(C)CCC[C@@]2(C)[C@@H]1Cc1cc(O)ccc1O` [zonarol], the “time within which plasma concentration remained over the LOQ” value in [3] (i.v. 10 mg/kg) is on record as at most 240 min; in [3] (p.o. 100 mg/kg) it was at most 480 min. For the same compound, the AUC(0-t) in series [3] (male, ddY, mouse, plasma, iv, i.v. 10 mg/kg, 0 to 240 min, n = 6, mean ± SD, read-out: AUC (AUC0-240) (converted)) is 608 ng·h/mL; in [3] (male, ddY, mouse, plasma, po, p.o. 100 mg/kg, 0 to 480 min, n = 5, mean ± SD, read-out: AUC (AUC0-480) (converted)), 1520 ng·h/mL. Further, the concentration at 5 min in series [3] (male, ddY, mouse, plasma, iv, i.v. 10 mg/kg, 5 min) stood at 878 ± 371 ng/mL. This compound came in with a bioavailability in series [3] (male, ddY, mouse, plasma, oral, (p.o. AUC/p.o. dose)/(i.v. AUC/i.v. dose) × 100, p.o. 100 mg/kg, i.v. 10 mg/kg) of 25%. For the same compound, in series [3] (setting [9]), the peak level (Cmax) was 723 ± 75.9 ng/mL. Also, the Tmax – broadly, the time from dosing to the highest level – in [3] (setting [9]) was 1.25 h. Also, the “tissue/body weights (g/g) and visual observation of each tissue vs. mice without bolus treatment” value in series [4] (i.v. 10 mg/kg bolus, data not shown) is given as “did not reflect any marked differences”. For the same compound, the concentration at 30 min was 2520 ± 1330 ng/g in [4] (bolus i.v. 10 mg/kg BW, 30 min, read-out: maximal distribution of zonarol in the brain) and 2530 ± 1330 ng/g in [4] (i.v. 10 mg/kg, 30 min after administration, n = 7, mean ± SD, read-out: zonarol content in brain (peak)). Further, the concentration at 15 min in series [4] (kidney, i.v. 10 mg/kg, n = 7, mean ± SD, read-out: zonarol content in kidney (highest)) is 1910 ± 1800 ng/g; in series [4] (liver, i.v. 10 mg/kg, n = 7, mean ± SD, read-out: zonarol content in liver (highest)) it was 1320 ± 1040 ng/g. For the same compound, the “accuracy of each group (plasma stability)” value in series [5] (all storage conditions and concentrations of Table 2) is reported as 90.8–112.9%. The “Accuracy (detected/prepared × 100)” value came out at 104.9% in [5] (setting [10]); 92.3% in [5] (setting [11]); 104.4% in series [5] (setting [12]); 105.8% in [5] (setting [13]); 90.8% in series [5] (setting [14]); 95.2% in series [5] (setting [15]). Also, the “Accuracy (detected/prepared × 100)” value in [5] (setting [16]) is recorded as 112.9%; in series [5] (setting [17]), 91.2%; in [5] (setting [18]), 97.2%; in series [5] (setting [19]), 107.9%; in series [5] (setting [20]) it was 94.4%; in [5] (setting [21]), 101.7%. For the same compound, the “Zonarol detected in plasma” value was 21.0 ± 1.33 ng/mL in series [5] (setting [10]); 73.8 ± 1.98 ng/mL in series [5] (setting [11]); 334.2 ± 10.70 ng/mL in [5] (setting [12]); 21.2 ± 0.33 ng/mL in series [5] (setting [13]); 72.6 ± 0.53 ng/mL in series [5] (setting [14]); 304.6 ± 6.57 ng/mL in series [5] (setting [15]). Moreover, the “Zonarol detected in plasma” value turned out to be 22.6 ± 1.24 ng/mL in series [5] (setting [16]); 73.0 ± 1.72 ng/mL in series [5] (setting [17]); 311.1 ± 2.76 ng/mL in series [5] (setting [18]); 21.6 ± 1.44 ng/mL in series [5] (setting [19]); 75.5 ± 2.38 ng/mL in series [5] (setting [20]); 325.5 ± 4.56 ng/mL in series [5] (setting [21]). Further, the “time zonarol remained stable in plasma” value in [5] (stored at 4 °C) is “at least 12 h”. Also, in series [5] (stored at RT or 37 °C for 4 h), the “change of zonarol content in plasma” value was “did not change”. Also, the “effect of three freeze–thaw cycles on quantification in plasma” value in series [5] (three freeze–thaw cycles) is “no effect”. Besides, the “plasma zonarol required to induce suppressive effects on edema formations” value in series [6] is “approximately 300 ng/mL”. The “effect on carrageenan-induced paw edema” value in [7] was “significantly suppressed”. The “effect on DSS-induced ulcerative colitis” value in [8] is on record as “suppressed”. For the same compound, the “effect on diet-induced NAFLD” value in the series with diet-induced NAFLD is “prevented”.
